# Test results: patent publication US20140370084A1, “ESTRADIOL FORMULATIONS AND THERAPIES” (TherapeuticsMD, Inc., priority 2013, published 2014)
# Assay: Particle size analysis of micronized progesterone API (Beckman Device, ULM)
# Assay type: physicochemical
# Conditions: sample API, Fraunhofer optical model
# Text: Particle size may be determined in any suitable manner. For example, a Beckman Coulter LS 13 320 Laser Diffraction Particle Size Analyzer (the “Beckman Device”) may be used to determine particle size. As described above, particle size may be represented by various metrics, for example, through an X50 particle size, and/or X90 particle size, or similar descriptions of particle size.
# The Beckman Device may be used with various modules for introducing a sample for analysis. The Beckman Device may be used with the LS 13 320 Universal Liquid Module (“ULM”). The ULM is capable of suspending samples in the size range of 0.017 μm to 2000 μm. The ULM is a liquid based module that allows for delivery of the sample to the sensing zone. The ULM recirculates the sample through the Beckman Device. The ULM comprises two hoses, one for fluid delivery and another for waste. The total volume used may be 125 mL or less. A sample mass of from about 1 mg to about 10 g may be used. The ULM may interact with the Beckman Device via pins that fit into slots on the ULM. The ULM may use a variety of suspension fluids, for example, water, butonol, ethanol, chloroform, heptanes, toluene, propanol, COULTER Type 1B Dispersant (“Coulter 1B”), and a variety of other suspension fluids. Surfactants may also be used, though pump speed should be adjusted to prevent excessive bubbling. […]
smiles,measurement,value
"CC(=O)[C@H]1CC[C@H]2[C@@H]3CCC4=CC(=O)CC[C@]4(C)[C@H]3CC[C@]12C [Progesterone, progesterone]",X25,1.590 μm
same,X75,7.442 μm
